| melting point | SMILES |
| --- | --- |
| 276 to 278 °C | COc1cc(-c2cn3ccccc3n2)ccc1O.Cl |
| 155 to 157 °C | COc1cc(-c2cccc3nccn23)ccc1OCc1ccc(C#N)cc1 [Example 120] |
| 180 to 181 °C | COc1cc(-c2cn3cc(Br)c(C)c(C)c3n2)ccc1OCc1ccc(C#N)cc1 [Example 101] |
| 114 to 115 °C | COc1cc(-c2cn3ccccc3n2)ccc1OCc1cccc(Cl)c1 [Example 21] |
| 215 to 218 °C | COc1ccc(COc2ccc(-c3cn4ccccc4n3)cc2)cc1 [Example 36] |
| 155 to 156 °C | COc1cc(-c2cn3cc(Br)cc(C)c3n2)ccc1OCc1ccc(Cl)cc1 [Example 69] |
| 109 to 111 °C | COc1cc(-c2cn3ccsc3n2)ccc1OCc1ccc(Br)cc1F [Example 84] |
| 136 to 137 °C | CCOc1cc(-c2cn3ccccc3n2)ccc1OCc1ccc(Cl)cc1 [Example 68] |
| 144 to 146 °C | COc1cc(-c2cn3ccccc3n2)ccc1OCc1ccc(F)cc1 [Example 6] |
| 242 to 243 °C | COc1cc(-c2cn3cc(C(=O)O)ccc3n2)ccc1OCc1ccc(C#N)cc1 [Example 44] |
| 245 to 247 °C | COc1cc(-c2cn3ccccc3n2)ccc1OCc1ccc(C(=O)O)cc1 [Example 51] |
| 114 to 115 °C | COc1cc(-c2nc3ccccn3c2C)ccc1OCc1ccc(Cl)cc1 [Example 26] |
| 251 to 253 °C | COc1cc(-c2cn3cc(C(=O)O)ccc3n2)ccc1OCc1ccc(Cl)cc1 [Example 45] |
| 163 to 165 °C | COc1cc(-c2cn3cc(Cl)cc(Cl)c3n2)ccc1OCc1ccccc1 [Example 52] |
| 154 to 155 °C | COc1cc(-c2cn3ccccc3n2)cc(OC)c1OCc1ccccc1 [Example 41] |
| 165 to 166 °C | COc1cc(-c2cn3cc(Br)ccc3n2)ccc1OCc1ccc(C#N)cc1 [Example 97] |
| 197 to 200 °C | COc1cc(-c2cn3ccccc3n2)ccc1OCc1ccc([N+](=O)[O-])cc1 [Example 38] |
| 138 to 139 °C | COc1cc(-c2cn3ccccc3n2)ccc1OCc1ccc(Cl)cc1Cl [Example 92] |
| 108 to 109 °C | COc1cc(-c2cn3cccc(OCc4ccccc4)c3n2)ccc1OCc1ccc(Br)cc1F [Example 87] |
| 171 to 173 °C | COc1cc(-c2cn3ccc(C)cc3n2)ccc1OCc1ccccc1 [Example 16] |
| 136 to 137 °C | COc1cc(-c2cn3ccccc3n2)ccc1OCc1ccc(Br)cc1 [Example 31] |

| melting point | SMILES |
| --- | --- |
| 103 to 104 °C | COc1cc(-c2nc3ccccn3c2Cl)ccc1OCc1ccccc1 [Example 2] |
| 136 to 137 °C | COc1cc(-c2cn3cc(C)cc(Br)c3n2)ccc1OCc1ccccc1 [Example 63] |
| 155 to 157 °C | COc1cc(-c2cn3ccccc3n2)ccc1OCc1ccc(C)cc1 [Example 9] |
| 125 to 126 °C | COc1cc(-c2cn3ccccc3n2)ccc1OCc1cc(F)ccc1C(F)(F)F [Example 8] |
| 123 to 124 °C | Cc1cc(-c2cn3ccccc3n2)ccc1OCc1ccccc1 [Example 39] |
| 179 to 181 °C | COc1cc(-c2cn3ccsc3n2)ccc1OCc1ccc(C#N)cc1 [Example 48] |
| 115 to 117 °C | COc1cc(-c2nc3ccccn3c2Br)ccc1OCc1ccccc1 [Example 3] |
| 104 to 105 °C | COc1cc(-c2nc3ccccn3c2Cl)ccc1OCc1cccc(F)c1 [Example 20] |
| 156 to 158 °C | COc1cc(-c2cn3cc(C)sc3n2)ccc1OCc1ccc(Cl)cc1 [Example 43] |
| 130 to 132 °C | COc1cc(-c2cn3c(C)cccc3n2)ccc1OCc1ccccc1 [Example 33] |
| 190 to 192 °C | COc1cc(-c2c[nH]c(-c3ccccc3)n2)ccc1OCc1ccccc1 [Example 79] |
| 175 to 176 °C | COc1cc(-c2cn3cc(C)cc(Br)c3n2)ccc1OCc1ccc(C#N)cc1 [Example 65] |
| 241 to 243 °C | COc1cc(-c2nc3ccccn3c2C)ccc1OCc1ccccc1.Cl |
| 164 to 165 °C | COc1cc(-c2cn3cc(Br)cc(C)c3n2)ccc1OCc1ccccc1 [Example 98] |
| 189 to 191 °C | COc1cc(-c2cn3ccsc3n2)ccc1OCc1ccc([N+](=O)[O-])cc1 [Example 49] |
| 164 to 165 °C | c1ccc(Oc2ccc(-c3cn4ccccc4n3)cc2)cc1 [Example 72] |
| 168 to 169 °C | COc1cc(-c2cn3cc(C)ccc3n2)ccc1OCc1ccc(C#N)cc1 [Example 57] |
| 178 to 180 °C | COc1cc(-c2cn3cc(Br)ccc3n2)ccc1OCc1ccc(Cl)cc1 [Example 96] |
| 108 to 109 °C | COc1cc(-c2nc3ccccn3c2Cl)ccc1Oc1ccccc1 [Example 115] |
| 122 to 124 °C | COc1cc(-c2cn3cccc(C)c3n2)ccc1OCc1ccc(Br)cc1F [Example 82] |
| 182 to 183 °C | COC(=O)c1ccc2nc(-c3ccc(OCc4ccc(Cl)cc4)c(OC)c3)cn2c1 [Example 46] |

| melting point | SMILES |
| --- | --- |
| 148 to 149 °C | COc1cc(-c2cnc3ccccn23)ccc1OCc1ccc(C#N)cc1 [Example 108] |
| 179 to 181 °C | COC(=O)c1cc(-c2cn3ccccc3n2)ccc1OCc1ccccc1 [Example 47] |
| 169 to 171 °C | Oc1cc(-c2cn3ccccc3n2)ccc1OCc1ccccc1 [Example 59] |
| 164 to 166 °C | COc1cc(-c2cn3cccc(OCc4ccccc4)c3n2)ccc1OCc1ccc(Cl)cc1 [Example 75] |
| 140 to 142 °C | COc1cc(-c2cn3cc(C)ccc3n2)ccc1OCc1ccc(Cl)cc1 [Example 32] |
| 168 to 169 °C | COc1cc(-c2cn3cccnc3n2)ccc1OCc1ccccc1 [Example 28, 2-(4-benzyloxy-3-methoxyphenyl)imidazo[1,2-a]pyrimidine] |
| 99 to 100 °C | COc1cc(-c2cn3cccc(C)c3n2)ccc1OCc1ccccc1 [Example 34] |
| 172 to 173 °C | COc1cc(-c2cn3ccccc3n2)ccc1OCc1ccc(C(F)(F)F)cc1 [Example 7] |
| 187 to 189 °C | COc1cc(-c2cn3cccc(O)c3n2)ccc1OCc1ccccc1 [Example 54] |
| 133 to 135 °C | COc1cc(-c2cnc3ccccn23)ccc1OCc1ccc(C(F)(F)F)cc1 [Example 122] |
| 175 to 176 °C | COc1cc(-c2cn3cc(Br)ccc3n2)ccc1OCc1ccccc1 [Example 66] |
| 144 to 146 °C | COc1cc(-c2cn3cccc(C)c3n2)ccc1OCc1ccc(C#N)cc1 [Example 74] |
| 155 to 156 °C | COc1cc(-c2cn3cc(C(F)(F)F)cc(Cl)c3n2)ccc1OCc1ccccc1 [Example 53] |
| 119 to 120 °C | COc1cc(-c2cn3ccccc3n2)ccc1OCc1ccc(Cl)cc1F [Example 91] |
| 136 to 137 °C | COc1cc(-c2cn3ccccc3n2)ccc1OCc1c(F)cccc1F [Example 104] |
| 140 to 141 °C | COc1cc(-c2cn3cccc(OCc4ccccc4)c3n2)ccc1OCc1ccccc1 [Example 55] |
| 136 to 138 °C | COc1cc(-c2cn3cc(C)cc(Br)c3n2)ccc1OCc1ccc(Cl)cc1 [Example 64] |
| 229 to 231 °C | Clc1ccc(COc2ccc(-c3cn4ccccc4n3)cc2)cc1 [Example 37] |
| 121 to 123 °C | COc1cc(-c2cn3ccccc3n2)ccc1OCC1CC1 [Example 71] |
| 118 to 119 °C | COc1cc(-c2cnc3ccccn23)ccc1OCc1ccc(F)cc1 [Example 133] |
| 228 to 230 °C | COc1cc(-c2nc3sccn3c2C)ccc1OCc1ccccc1.Cl |

| melting point | SMILES |
| --- | --- |
| 135 to 136 °C | COc1cc(-c2cn3cc(C)ccc3n2)ccc1OCc1ccccc1 [Example 15] |
| 165 to 167 °C | COc1ccc(COc2ccc(-c3cn4ccccc4n3)cc2OC)cc1 [Example 35] |
| 118 to 120 °C | COc1cc(-c2nc3ccccn3c2C)ccc1OCc1ccc(C)cc1 [Example 27] |
| 177 to 179 °C | COc1cc(-c2cn3cc(Cl)ccc3n2)ccc1OCc1ccccc1 [Example 18] |
| 219 to 221 °C | COc1cc(-c2nc3ccccc3[nH]2)ccc1OCc1ccccc1 [Example 76, 2-(4-benzyloxy-3-methoxyphenyl)benzimidazole] |
| 204 to 206 °C | COc1cc(-c2nc3ccccc3[nH]2)ccc1OCc1ccc(Cl)cc1 [Example 77] |
| 155 to 157 °C | COc1cc(-c2cn3cc(C)ccc3n2)ccc1OCc1ccc(Br)cc1 [Example 56] |
| 177 to 178 °C | COc1cc(-c2cn3cc(Br)cc(C)c3n2)ccc1OCc1ccc(C#N)cc1 [Example 99] |
| 169 to 170 °C | COc1cc(-c2cn3cccc(OCc4ccccc4)c3n2)ccc1OCc1ccc(C#N)cc1 [Example 86] |
| 239 to 240 °C | O=C(O)c1cc(-c2cn3ccccc3n2)ccc1OCc1ccccc1 [Example 40] |
| 206 to 208 °C | Oc1cc(-c2cn3ccccc3n2)ccc1OCc1ccc(Cl)cc1 [Example 67] |
| 129 to 131 °C | COc1cc(-c2cnc3ccccn23)ccc1OCc1ccccc1 [Example 12, 3-(4-benzyloxy-3-methoxyphenyl)imidazo[1,2-a]pyridine] |
| 147 to 148 °C | COc1cc(-c2cn3cc(C)ccc3n2)ccc1OCc1ccc(Br)cc1F [Example 83] |
| 122 to 124 °C | c1ccc(COc2ccc(-c3cn4ccccc4n3)cc2OCc2ccccc2)cc1 [Example 62] |
| 216 to 218 °C | COc1cc(-c2cn3cccnc3n2)ccc1OCc1ccc(Cl)cc1 [Example 29] |
| 187 to 189 °C | COc1cc(-c2cn3cc(Cl)cc(Cl)c3n2)ccc1OCc1ccc(C#N)cc1 [Example 81] |
| 164 to 166 °C | COc1cc(-c2cccc3nccn23)ccc1OCc1ccccc1 [Example 116] |
| 158 to 160 °C | COc1cc(-c2cn3cc(Br)c(C)c(C)c3n2)ccc1OCc1ccccc1 [Example 100] |
| 134 to 136 °C | COc1cc(-c2cn3ccsc3n2)ccc1OCc1ccc(Br)cc1 [Example 42] |
| 220 to 222 °C | COc1cc(-c2cn3cccc(O)c3n2)ccc1OCc1ccc(Cl)cc1 [Example 90] |
